Blank lines part the entries; values can stand above or below the compound they belong to.
How the values were obtained:
human Edg7 receptor [1] = biological target: T1, human Edg7 receptor (Homo sapiens, UniProt Q9UBY5); assay: Intracellular calcium mobilization (FLIPR, fluo-3) in Edg7-transfected CHO cells; assay type: cell-based; design: expressed in transfected cells; host or cells: CHO (transient, electroporation); details: for activity against Edg7: data not shown
T1 sequence (Q9UBY5 1-353): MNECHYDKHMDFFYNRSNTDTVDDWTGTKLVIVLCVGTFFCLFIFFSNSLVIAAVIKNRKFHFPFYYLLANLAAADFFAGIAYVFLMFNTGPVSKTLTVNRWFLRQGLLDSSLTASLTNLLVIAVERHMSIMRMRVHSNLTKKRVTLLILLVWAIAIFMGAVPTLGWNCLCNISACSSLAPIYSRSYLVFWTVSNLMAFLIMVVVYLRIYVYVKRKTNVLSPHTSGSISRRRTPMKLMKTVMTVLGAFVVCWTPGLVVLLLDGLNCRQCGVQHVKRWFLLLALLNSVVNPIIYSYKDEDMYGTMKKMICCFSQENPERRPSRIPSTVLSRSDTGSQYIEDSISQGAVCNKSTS
Description: (§1) Cells expressing the receptor of interest are plated into clear, flat-bottom, black-wall 96-well plates (Costar) at a density of 80,000-150,000 cells per well and allowed to incubate for 48 hr at 5% CO2, 37° C. The growth medium is aspirated and 100 μl of loading medium containing fluo-3 dye is added to each well. The loading medium contains: Hank's BSS (without phenol red)(Gibco), 20 mM HEPES (Sigma), 0.1 or 1% BSA (Sigma), dye/pluronic acid mixture (e.g. 1 mM Flou-3, AM (Molecular Probes) and 10% pluronic acid (Molecular Probes) mixed immediately before use), and 2.5 mM probenecid (Sigma)(prepared fresh) The cells are allowed to incubate for about 1 hour at 5% CO2, 37° C.
During the dye loading incubation the compound plate is prepared. The compounds are diluted in wash buffer (Hank's BSS (without phenol red), 20 mM HEPES, 2.5 mM probenecid) to a 4×final concentration and aliquoted into a clear v-bottom plate (Nunc). Following the incubation the cells are washed to remove the excess dye. A Denley plate washer is used to gently wash the cells 4 times and leave a 100 μl final volume of wash buffer in each well. The cell plate is placed in the center tray and the compound plate is placed in the right tray of the FLIPR. The FLIPR software is setup for the experiment, the experiment is run and the data are collected. The data are then analyzed using an excel spreadsheet program.

human Edg7 receptor [2] = biological target: T1, human Edg7 receptor; assay: Inositol phosphate (IP) release in Edg7-transfected Cos-7, HEK293 and CHO cells; assay type: cell-based; design: expressed in transfected cells; host or cells: Cos-7, HEK293, CHO (transient, electroporation); details: for ability to activate Edg7 (inositol phosphate formation): Cos-7 cells transfected with Edg7, varying concentrations
Description: A typical protocol for the electroporation method as applied to Cos-7 cells is described as follows. Cells to be used for transfection are split 24 hours prior to the transfection to provide flasks which are subconfluent at the time of transfection. The cells are harvested by trypsinization resuspended in their growth media and counted. 5×10^6 cells are suspended in 300 μl of DMEM and placed into an electroporation cuvette. 8 μg of receptor DNA plus 8 μg of any additional DNA needed (e.g. G protein expression vector, reporter construct, antibiotic resistance marker, mock vector, etc.) is added to the cell suspension, the cuvette is placed into a BioRad Gene Pulser and subjected to an electrical pulse (Gene Pulser settings: 0.25 kV voltage, 950 μF capacitance). Following the pulse, 800 μl of complete DMEM is added to each cuvette and the suspension transferred to a sterile tube. Complete medium is added to each tube to bring the final cell concentration to 1×10^5 cells/100 μl. The cells are then plated as needed depending upon the type of assay to be performed. Edg7 receptor-mediated activation of the inositol phosphate (IP) second messenger pathways was assessed by radiometric measurement of IP products. In a 96 well microplate format assay, cells are plated at a density of 70,000 cells per well and allowed to incubate for 24 hours. The cells are then labeled with 0.5 μCi [^3H]myo-inositol overnight at 37° C., 5% CO2. Immediately before the assay, the medium is removed and replaced with 90 μL of PBS containing 10 mM LiCl. The plates are then incubated for 15 min at 37° C., 5% CO2. Following the incubation, the cells are challenged with agonist (10 μl/well; 10×concentration) for 30 min at 37° C., 5% CO2. The challenge is terminated by the addition of 100 μL of 50% v/v trichloroacetic acid, followed by incubation at 4° C. for greater than 30 minutes. Total IPs are isolated from the lysate by ion exchange chromatography. Briefly, the lysed contents of the wells are transferred to a Multiscreen HV filter plate (Millipore) containing Dowex AG1-X8 (200-400 mesh, formate form). The filter plates are prepared adding 100μL of Dowex AG1-X8 suspension (50% v/v, water: resin) to each well. The filter plates are placed on a vacuum manifold to wash or elute the resin bed. Each well is first washed 2 times with 200 μl of 5 mM myo-inositol. Total [^3H]inositol phosphates are eluted with 75 μl of 1.2M ammonium formate/0.1M formic acid solution into 96-well plates. 200 μL of scintillation cocktail is added to each well, and the radioactivity is determined by liquid scintillation counting.

[3] = tested on: mock (empty vector)-transfected Cos-7 cells; assay: Inositol phosphate (IP) formation in mock (empty vector)-transfected Cos-7 cells; assay type: cell-based; details: 1 μM final concentration, n=4
Description: A typical protocol for the electroporation method as applied to Cos-7 cells is described as follows. Cells to be used for transfection are split 24 hours prior to the transfection to provide flasks which are subconfluent at the time of transfection. The cells are harvested by trypsinization resuspended in their growth media and counted. 5×10^6 cells are suspended in 300 μl of DMEM and placed into an electroporation cuvette. 8 μg of receptor DNA plus 8 μg of any additional DNA needed (e.g. G protein expression vector, reporter construct, antibiotic resistance marker, mock vector, etc.) is added to the cell suspension, the cuvette is placed into a BioRad Gene Pulser and subjected to an electrical pulse (Gene Pulser settings: 0.25 kV voltage, 950 μF capacitance). Following the pulse, 800 μl of complete DMEM is added to each cuvette and the suspension transferred to a sterile tube. Complete medium is added to each tube to bring the final cell concentration to 1×10^5 cells/100 μl. The cells are then plated as needed depending upon the type of assay to be performed. Edg7 receptor-mediated activation of the inositol phosphate (IP) second messenger pathways was assessed by radiometric measurement of IP products. […] 200 μL of scintillation cocktail is added to each well, and the radioactivity is determined by liquid scintillation counting.

[4] = tested on: mock DNA (empty vector)-transfected CHO cells; assay: Intracellular calcium mobilization (FLIPR, fluo-3) in mock DNA-transfected CHO cells; assay type: cell-based, Chinese hamster; details: mean±SEM, n=6, read-out: EC50 of increase in intracellular calcium
Description: In another method, the measurement of intracellular calcium can also be performed on a 96-well (or higher) format and with alternative calcium-sensitive indicators, preferred examples of these are: aequorin, Fluo-3, Fluo-4, Fluo-5, Calcium Green-1, Oregon Green, and 488 BAPTA. After activation of the receptors with agonist ligands the emission elicited by the change of intracellular calcium concentration can be measured by a luminometer, or a fluorescence imager; a preferred example of this is the fluorescence imager plate reader (FLIPR).
as §1
During the dye loading incubation the compound plate is prepared. […] The data are then analyzed using an excel spreadsheet program.

human Edg7 receptor [5] = biological target: T1, human Edg7 receptor; assay: Calcium-activated Cl- currents in Xenopus oocytes injected with Edg7 mRNA; assay type: cell-based
Description: Oocytes are harvested from Xenopus laevis and injected with mRNA transcripts as previously described (Quick and Lester, 1994; Smith et al.,1997). Edg7 receptor RNA transcript is synthesized using the T7 polymerase (“Message Machine,” Ambion) from linearized plasmids or PCR products containing the complete coding region of the gene. Oocytes are injected with 1-50 ng synthetic receptor RNA and incubated for 3-8 days at 17° C. Currents are recorded under dual electrode voltage clamp (Axon Instruments Inc.) with 3 M KCl-filled glass microelectrodes having resistances of 1-2 Mohm. Unless otherwise specified, oocytes are voltage clamped at a holding potential of −80 mV. During recordings, oocytes are bathed in continuously flowing (1-3 ml/min) medium containing 96 mM NaCl, 2 mM KCl, 1.8 MM CaCl2, 1 mM MgCl2, and 5 mM HEPES, pH 7.5 (ND96). Drugs are applied either by local perfusion from a 10 μl glass capillary tube fixed at a distance of 0.5 mm from the oocyte, or by switching from a series of gravity fed perfusion lines.
Activation of the phospholipase C (PLC) pathway is assayed by applying a test compound in ND96 solution to oocytes previously injected with mRNA for the Edg7 receptor and observing inward currents at a holding potential of approximately −80 mV. The appearance of currents that reverse at −25 mV and display other properties of the Ca^++-activated Cl^− channel is indicative of receptor-activation of PLC and release of IP3 and intracellular Ca^++.
Involvement of the Gi/o class of G-proteins in GPCR-stimulated Ca^++-activated Cl^− currents is evaluated using PTX, a toxin which inactivates Gi/o G-proteins. Oocytes are injected with 25 ng PTX/oocyte and modulation of Ca^++-activated Cl^− currents by Edg7 receptor is evaluated 2-5 h subsequently.

[6] = tested on: LPA receptors endogenous to oocytes; assay: Calcium-activated Cl- currents in control (uninjected) Xenopus oocytes; assay type: cell-based, Xenopus laevis

Compound: O=c1ccn([C@@H]2O[C@H](COP(=O)(O)OP(=O)(O)OP(=O)(O)O)[C@@H](O)[C@H]2O)c(=O)[nH]1 [UTP]
- intracellular calcium responses in Edg7- versus mock DNA-transfected cells (human Edg7 receptor [1]; CHO cells, n=3): almost identical

Compound: lysophosphatidylserine
- significantly different response in Edg7-expressing cells as compared to mock DNA-transfected cells (human Edg7 receptor [1]; CHO cells, intracellular calcium, 10 μM): significantly different response

Compound: platelet-activating factor
- activity against Edg7 (human Edg7 receptor [1]): inactive

Compound: CCCCCCCCCCCCC/C=C/[C@@H](O)[C@@H](N)COP(=O)([O-])OCC[N+](C)(C)C [sphingosylphosphorylcholine]
- ability to activate Edg7 (inositol phosphate formation) (human Edg7 receptor [2]): No dose-responsiveness

Compound: Lysophosphatidic acid [LPA]
- concentration at which nearly maximal responses were observed (human Edg7 receptor [5]; Edg7-injected oocytes, Cl- current): 100 nM
- LPA response (Cl- current) after treatment with PTX (human Edg7 receptor [5]; Edg7-injected oocytes, PTX 25 ng injected 2-5 h prior to recording): substantial current remained
- Cl- current amplitude (human Edg7 receptor [5]; oocytes injected with Edg7 mRNA, oleoyl LPA 1 μM, n=5): 1272±126 nA
- inward Cl- currents, typical response ([6]; control oocytes lacking injection of foreign mRNA): 100-1000 nA
- LPA response (Cl- current) after treatment with PTX ([6]; control oocytes, PTX 25 ng injected 2-5 h prior to recording): nearly abolished
- Cl- current amplitude ([6]; uninjected oocytes, batch with low endogenous LPA activity, oleoyl LPA 1 μM, n=5): 18±18 nA

Compound: CCCCC/C=C\C/C=C\C/C=C\C/C=C\CCCC(=O)NCCO [anandamide]
- activity against Edg7 (human Edg7 receptor [1]): inactive

Continued, in another order:

- activity against Edg7 (human Edg7 receptor [1]): inactive
Compound: phosphatidyl choline

- activation of Edg7 receptors (intracellular calcium) (human Edg7 receptor [1]; CHO cells, n=4): agonist
- increase in intracellular calcium (human Edg7 receptor [1]; Edg7 receptors, CHO cells, n=4): approximately 5 fold
- ability to activate Edg7 (inositol phosphate formation) (human Edg7 receptor [2]): partial agonist
Compound: phosphatidic acid

- activity against Edg7 (human Edg7 receptor [1]): inactive
Compound: sphingomyelin

- activity against Edg7 (human Edg7 receptor [1]): inactive
Compound: CCCCC[C@H](O)/C=C/[C@H]1[C@H](O)CC(=O)[C@@H]1C/C=C\CCCC(=O)O [prostaglandin E2]

- activity against Edg7 (human Edg7 receptor [1]): inactive
Compound: CCCCCCCC/C=C\CCCCCCCC(=O)O [oleic acid]

- peak intracellular calcium response in Edg7-transfected cells as compared to mock DNA-transfected cells (human Edg7 receptor [1]; CHO cells, 10 μM): approximately 3 fold
- average increase in IP production (human Edg7 receptor [2]; Edg7-transfected Cos-7 cells, 1 μM final concentration, n=4): 3 fold
- Emax of IP response (human Edg7 receptor [2]; all three cell lines (Cos-7, HEK 293, CHO)): 200-300%
Compound: CCCCCCCC/C=C\CCCCCCCC(=O)OCC(O)COP(=O)(O)O (centres unmarked) [oleoyl LPA, oleoyl lysophosphatidic acid]
- average increase in IP production [3]: 2 fold
- EC50 [4]: 347 ± 54 nM

- activation of Edg7 receptors (intracellular calcium) (human Edg7 receptor [1]; CHO cells, n=4): failed to activate
- ability to activate Edg7 (inositol phosphate formation) (human Edg7 receptor [2]): No dose-responsiveness
Compound: CCCCCCCCCCCCC/C=C/[C@@H](O)[C@@H](N)COP(=O)(O)O [sphingosine-1-phosphate]

- activity against Edg7 (human Edg7 receptor [1]): inactive
Compound: thromboxane B4
